Results on 9 compounds are retold here after publication PMC11811690 (Angewandte Chemie (International Ed. in English), 2024).

Structures are written as SMILES.

For this test, the system named is Rif-resistant Mtb isolate (clinical isolate, rpoB mutant S531L). It counts as cell-based, Mycobacterium tuberculosis.
With `CC[C@H]1/C=C(\C)[C@@H](O)C/C=C/C=C(\CNc2ccc(C#N)cc2)C(=O)O[C@H]([C@@H](C)O)C/C=C(C)/C=C(\C)[C@@H]1O[C@@H]1OC(C)(C)[C@@H](OC(=O)C(C)C)[C@H](O)[C@@H]1O` [compound 24], the “MIC Rif-resistant Mtb isolate, turbidity read-out” value (“MIC Rif-resistant Mtb isolate” below) is listed as 16-32.
On to `CC[C@H]1/C=C(\C)[C@@H](O)C/C=C/C=C(\CN(C)Cc2nnc(-c3ccccc3)o2)C(=O)O[C@H]([C@@H](C)O)C/C=C(C)/C=C(\C)[C@@H]1O[C@@H]1OC(C)(C)[C@@H](OC(=O)C(C)C)[C@H](O)[C@@H]1O` [compound 7], for which the “MIC Rif-resistant Mtb isolate” value lay within 8 to 16 µg/mL.
As for `CC[C@H]1/C=C(\C)[C@@H](O)C/C=C/C=C(\CNCc2nnc(-c3ccc(C(F)(F)F)cc3)o2)C(=O)O[C@H]([C@@H](C)O)C/C=C(C)/C=C(\C)[C@@H]1O[C@@H]1OC(C)(C)[C@@H](OC(=O)C(C)C)[C@H](O)[C@@H]1O` [compound 23], the “MIC Rif-resistant Mtb isolate” value is on record as 4-8.
For `CC[C@H]1/C=C(\C)[C@@H](O)C/C=C/C=C(\CNCc2nnc(-c3ccccc3)o2)C(=O)O[C@H]([C@@H](C)O)C/C=C(C)/C=C(\C)[C@@H]1O[C@@H]1OC(C)(C)[C@@H](OC(=O)C(C)C)[C@H](O)[C@@H]1O` [compound 16], the “MIC Rif-resistant Mtb isolate” value was 4 to 8 µg/mL.
For the compound `CC[C@H]1/C=C(\C)[C@@H](O)C/C=C/C=C(\CNc2nc(-c3ccccc3)cs2)C(=O)O[C@H]([C@@H](C)O)C/C=C(C)/C=C(\C)[C@@H]1O[C@@H]1OC(C)(C)[C@@H](OC(=O)C(C)C)[C@H](O)[C@@H]1O` [compound 13], the “MIC Rif-resistant Mtb isolate” value is 8 to 16 µg/mL.
For the compound `CC[C@H]1/C=C(\C)[C@@H](O)C/C=C/C=C(\CNc2ccc(C#N)cn2)C(=O)O[C@H]([C@@H](C)O)C/C=C(C)/C=C(\C)[C@@H]1O[C@@H]1OC(C)(C)[C@@H](OC(=O)C(C)C)[C@H](O)[C@@H]1O` [compound 25], the “MIC Rif-resistant Mtb isolate” value is recorded as 16-32.
Consider `CC[C@H]1/C=C(\C)[C@@H](O)C/C=C/C=C(\CNc2nc(COc3ccccc3)cs2)C(=O)O[C@H]([C@@H](C)O)C/C=C(C)/C=C(\C)[C@@H]1O[C@@H]1OC(C)(C)[C@@H](OC(=O)C(C)C)[C@H](O)[C@@H]1O` [compound 10], for which the “MIC Rif-resistant Mtb isolate” value lay within 8 to 16 µg/mL.
As to `CC[C@H]1/C=C(\C)[C@@H](O)C/C=C/C=C(\CNc2nc3ccccc3s2)C(=O)O[C@H]([C@@H](C)O)C/C=C(C)/C=C(\C)[C@@H]1O[C@@H]1OC(C)(C)[C@@H](OC(=O)C(C)C)[C@H](O)[C@@H]1O` [compound 9], the “MIC Rif-resistant Mtb isolate” value was 8 to 16 µg/mL.
Take `CC[C@H]1/C=C(\C)[C@@H](O)C/C=C/C=C(\CNCc2nnc(-c3ccc(OC)c(OC)c3Cl)o2)C(=O)O[C@H]([C@@H](C)O)C/C=C(C)/C=C(\C)[C@@H]1O[C@@H]1OC(C)(C)[C@@H](OC(=O)C(C)C)[C@H](O)[C@@H]1O` [compound 18]: the “MIC Rif-resistant Mtb isolate” value was 4 to 8 µg/mL.
